Consider 9 compounds from ChEMBL document CHEMBL5230127, “Research progress of mTOR inhibitors” (Eur J Med Chem, 2020).

The term Ki denotes a measure of affinity in units of concentration, obtained from inhibition or displacement. As usually defined, the IC50 is the midpoint of a concentration-inhibition curve. By EC50 is commonly meant the concentration needed to bring the measured effect to its halfway point. What is called Kd is a measure of binding affinity in units of concentration.

For assay [1], the target named is T1, Serine/threonine-protein kinase mTOR (Homo sapiens, UniProt P42345). As to the kind of experiment: Inhibition of mTOR (unknown origin) assessed as inhibition constant using GFP-4EBP1 as substrate by Lanthascreen based time resolved fluorescence based assay. In general terms: Time-resolved FRET reads energy transfer from a long-lived donor to a nearby acceptor.

Assay [2] addresses Phosphatidylinositol 4,5-bisphosphate 3-kinase catalytic subunit alpha isoform (Homo sapiens, UniProt P42336). The assay is described as follows: Inhibition of PIK3alpha (unknown origin) expressed in baculovirus assessed as inhibition constant using PIP2 as substrate in presence of [gamma-32P]ATP incubated for 30 mins by scintillation proximity assay. (In general: SPA uses beads or plates that emit light when radiolabelled molecules are held near them.)

Assay [3] addresses T1, Serine/threonine-protein kinase mTOR.
In the next assay the test system is Splenocyte. The assay is described as follows: Immunosuppressive activity in BDF1 mouse Splenocyte assessed as inhibition of concanavalin A induced T-cell proliferation incubated for 72 hrs by [3H]-thymidine incorporation based liquid scintillation counter analysis. The format is functional. A general note: Dividing cells build labelled thymidine or BrdU into new DNA.

Assay [4] relates to Cortical neurone. The assay is described as follows: Neuroprotective activity in rat Primary cortical neuron assessed as increase in neurite outgrowth incubated for 72 hrs by cellomics array-scan assay. It counts as functional, cell-based.
The subject of assay [5] is Cortical neurone. The assay is described as follows: Neuroprotective activity in rat Primary cortical neuron assessed as increase in neuronal survival by measuring neurofilament incubated for 72 hrs by ELISA. It counts as functional, cell-based.
In assay [6] the target is Serine/threonine-protein kinase mTOR (Rattus norvegicus, UniProt P42346). As to the kind of experiment: Inhibition of mTOR in rat brain by […] immunoblot assay. It counts as tissue-based.
Assay [7] is described as follows: Inhibition of DNAPK in human HCT-116 cells preincubated for 1 hr followed by UV radiation and measured after 1 hr by Bradford assay based immunoblotting analysis. The format is cell-based.
The next assay addresses mTORC2 (Homo sapiens, UniProt P42345). The assay is described as follows: Inhibition of mTORC2 in human LN-229 cells assessed as decrease in phosphorylation of AKT at Ser473 level incubated for 24 hrs by immunoblot assay. The format is cell-based.
Assay [8] concerns the target T1, Serine/threonine-protein kinase mTOR. As to the kind of experiment: Binding affinity to mTOR (unknown origin) assessed as dissociation constant by measuring pKd.

Phosphatidylinositol 4,5-bisphosphate 3-kinase catalytic subunit alpha isoform, sequence (P42336 whole entry, canonical isoform): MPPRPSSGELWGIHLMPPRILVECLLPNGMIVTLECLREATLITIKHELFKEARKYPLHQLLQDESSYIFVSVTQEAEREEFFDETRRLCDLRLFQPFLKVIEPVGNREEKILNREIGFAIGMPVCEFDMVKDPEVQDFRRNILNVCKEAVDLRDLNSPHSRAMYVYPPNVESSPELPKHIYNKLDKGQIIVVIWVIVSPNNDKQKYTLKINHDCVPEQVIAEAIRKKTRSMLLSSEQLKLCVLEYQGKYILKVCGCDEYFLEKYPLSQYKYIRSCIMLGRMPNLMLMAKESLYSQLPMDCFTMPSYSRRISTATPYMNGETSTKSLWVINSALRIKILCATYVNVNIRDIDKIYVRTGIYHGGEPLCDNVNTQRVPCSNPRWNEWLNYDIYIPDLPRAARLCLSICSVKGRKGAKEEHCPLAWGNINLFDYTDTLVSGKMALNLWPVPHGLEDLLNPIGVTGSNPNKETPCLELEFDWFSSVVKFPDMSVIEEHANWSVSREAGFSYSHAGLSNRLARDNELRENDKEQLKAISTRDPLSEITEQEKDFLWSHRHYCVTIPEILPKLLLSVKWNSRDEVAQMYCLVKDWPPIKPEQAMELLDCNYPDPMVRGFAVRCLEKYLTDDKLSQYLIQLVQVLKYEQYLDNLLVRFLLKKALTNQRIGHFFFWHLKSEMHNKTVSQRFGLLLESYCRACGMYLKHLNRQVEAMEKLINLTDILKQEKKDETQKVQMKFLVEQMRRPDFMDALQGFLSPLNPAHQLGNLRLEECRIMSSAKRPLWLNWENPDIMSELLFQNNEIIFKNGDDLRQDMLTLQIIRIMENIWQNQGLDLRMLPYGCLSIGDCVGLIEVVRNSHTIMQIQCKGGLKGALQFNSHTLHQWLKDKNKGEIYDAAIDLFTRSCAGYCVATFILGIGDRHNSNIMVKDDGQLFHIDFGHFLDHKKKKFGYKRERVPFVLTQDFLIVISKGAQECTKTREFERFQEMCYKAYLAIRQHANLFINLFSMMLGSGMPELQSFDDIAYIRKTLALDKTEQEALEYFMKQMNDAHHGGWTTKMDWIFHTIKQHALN

With `O=C(O[C@@H]1Cc2c(O)cc(O)cc2O[C@@H]1c1cc(O)c(O)c(O)c1)c1cc(O)c(O)c(O)c1` [EPIGALOCATECHIN GALLATE], the inhibition constant (Ki) is 320 nM in [1] and 380 nM in [2].

In the case of `COc1cccc2cc(-c3nc(C4CCC(C(=O)O)CC4)n4ncnc(N)c34)[nH]c12` (stereo unspecified), in [3], the IC50 amounted to 4 nM.

As for `CO[C@@H]1C[C@H](C[C@@H](C)[C@@H]2CC(=O)[C@H](C)/C=C(\C)[C@@H](O)[C@@H](OC)C(=O)[C@H](C)C[C@H](C)/C=C/C=C/C=C(\C)[C@@H](OCc3ccccc3)C[C@@H]3CC[C@@H](C)[C@@](O)(O3)C(=O)C(=O)N3CCCC[C@H]3C(=O)O2)CC[C@H]1O`, the IC50 with Splenocyte worked out at 6 nM.

Take `CO[C@H]1C[C@@H]2CC[C@@H](C)[C@@](O)(O2)C(=O)C(=O)N2CCCC[C@H]2C(=O)O[C@H]([C@H](C)C[C@@H]2CC[C@@H](O)[C@H](OC)C2)CC(=O)[C@H](C)/C=C(\C)[C@@H](O)[C@@H](OC)C(=O)[C@H](C)C[C@H](C)C2C=CC(/C=C/1C)ON2c1ccccc1`: the EC50 in the assay on Cortical neurone [4] is 420 nM; in the assay on Cortical neurone [5], 700 nM.

Turning to `CO[C@@H]1C[C@H](C[C@@H](C)[C@@H]2CC(=O)[C@H](C)/C=C(\C)[C@@H](O)[C@@H](OC)C(=O)[C@H](C)C[C@H](C)/C=C/C=C/C=C(\C)CC[C@@H]3CC[C@@H](C)[C@@](O)(O3)C(=O)C(=O)N3CCCC[C@H]3C(=O)O2)CC[C@H]1O`, in the assay on Splenocyte, the IC50 was determined as 2 nM.

In assay [6], `COC[C@H]1OC(=O)c2coc3c2[C@@]1(C)C1=C(C3=O)[C@@H]2CCC(=O)[C@@]2(C)C[C@H]1OC(C)=O` [WORTMANNIN] registered an IC50 of 300 nM.

Consider `Nc1ccc(-c2ccc3ncc4ccc(=O)n(-c5cccc(C(F)(F)F)c5)c4c3c2)cn1`, for which, in [7], the IC50 is < 10 nM.

For the compound `CC1CN(C(=O)Nc2ccc(Cl)c(Cl)c2)/C(=N/c2cccc(F)c2)S1` (stereo unspecified), on mTORC2, the IC50 is 310 nM.

For `CNc1ncnn2c(C3CCC(C(=O)O)CC3)nc(-c3cc4cccc(OC5CCOC5)c4[nH]3)c12` (stereo unspecified), the dissociation constant Kd in [8] was 204 nM.
